Data taken from US20230190736A1, “SMALL MOLECULE THERAPEUTICS FOR THE TREATMENT OF VIRAL INFECTIONS” (priority 2020, published 2023).
Read-outs that look alike come from different tables or passages of the source.

Key:
Type in all cases: cell-based
[1] = system: SARS-CoV-2; assay: mTORC1 inhibition of SARS-CoV-2 replication in Vero cells (fluorescence microscopy); conditions: 25 nM, 72 hours
[2] = system: SARS-CoV-2; assay: microbe, parasite or virus in culture; conditions: Severe acute respiratory syndrome coronavirus 2; secondary screen, doses 2.5, 25, 250 and 500 nM, immunofluorescent assay; read-out: IC50 anti SARS-CoV-2 activity
[3] = system: SARS-CoV-2; conditions: Compound A 50 nM, Compound B 50 nM; higher is better
[4] = system: SARS-CoV-2; conditions: 10 um, 1 hour pretreatment, MOI 1, 48 hpi
[5] = system: SARS-CoV-2; assay: microbe, parasite or virus in culture
[6] = system: human lung stem cell derived Air-liquid interface (ALI) cells; assay: Cell Titer glo viability assay in air-liquid interface (ALI) cultures; conditions: up to 50 μM, 48 hours post treatment
Experimental: Series 1 and 2 are the values from independent wells.
Berzosertib was tested in a primary human lung tissue culture system consisting of mucociliary air-liquid interface (ALI) cultures derived from primary human proximal airway basal stem cells (ABSCs). 24-well 6.5 mm trans-wells with […] polyester membrane inserts were used for culturing ALI cells. 500 μl ALI media (PneumaCult-ALI Medium, […] Technologies) was used in the basal chamber for ALI cultures and cells were cultured at 37° C. with 5% CO2. […] Control cells were treated with the solvent DMSO. 48 hours post drug treatment, the cells were subjected to viability assay using Cell Titer glo kit.

CNC(=O)c1cccc(-c2ccc3c(N4CCOC[C@@H]4C)nc(N4CCOC[C@@H]4C)nc3n2)c1 [Vistusertib]
presence of viral dsRNA [1]: almost completely abolished
IC50 [2]: 25 nM

COc1ccc(CC(C)NCC(O)c2ccc(O)c(NC=O)c2)cc1 (stereo not drawn) [Empty-Formoterol, Formoterol]
Cell Number: Cell Nuclei Counts [3]: 8390

Cc1cn(-c2cc(NC(=O)c3ccc(C)c(Nc4nccc(-c5cccnc5)n4)c3)cc(C(F)(F)F)c2)cn1 [Nilotinib]
IC50 [2]: 250 to 500 nM

CCN(CCO)CCCC(C)Nc1ccnc2cc(Cl)ccc12 (stereo not drawn) [hydroxychloroquine]
inhibition of SARS-CoV-2 infection (dsRNA immunostaining) [4]: efficiently inhibited SARS-CoV-2 infection
inhibition of SARS-CoV-2 infection (dsRNA immunostaining) ([4]; listed as HQ): effectively blocked SARS-CoV-2 infection

CNCc1ccc(-c2cc(-c3nc(-c4ccc(S(=O)(=O)C(C)C)cc4)cnc3N)on2)cc1 [Berzosertib]
inhibition of virus positive cells [5]: over 70%
IC50 ([5]; Severe acute respiratory syndrome coronavirus 2, read-out: IC50 inhibiting SARS-CoV-2 determined by RTQPCR): 40 nM
effect on cell viability [6]: did not have any deleterious effect on cell viability
effect on cell viability ([6]; listed as berzosertib): non-toxic and safe
IC50 [2]: 25 nM

OCc1cc(C(O)CNCCCCCCOCCCCc2ccccc2)ccc1O (stereo not drawn) [Empty-Salmeterol, Salmeterol]
Cell Number: Cell Nuclei Counts [3]: 8193
